Reference: US7807368B2, “Cyclin-dependent kinase inhibitors as targets for opiod growth factor treatment” (priority 2006, dated 2010)

Experiments:
[1] = tested on: Normal Human Neo-Epidermal Keratinocyte cells (NHEK); experiment: Growth of NHEK cells; assay type: cell-based; details: 10^-6 M OGF
Protocol: OGFr is required for OGF action on growth. Normal Human Neo-Epidermal Keratinocyte cells (NHEK) were transfected with OGFr siRNAs or control siRNAs for 72 h in the presence of 10^−6 M OGF, 10^−6 M NTX, or sterile water. Cells were harvested at 72 h and counted with a hemacytometer. Data represent means±SE for 2 independent experiments. Cell numbers differed from wt cells or cells transfected with the negative control siRNA and treated with sterile water at p<0.05 (*), p<0.01 (**), or […]. […] At 72 hr, OGF-treated cultures had 20% fewer cells and at 96 hr, OGF-treated cultures had 32% fewer cells than sterile-water treated control cultures.

CAL-27 cells = experiment: Growth curves of CAL-27 cells transfected with p16 siRNA; assay type: cell-based, human
Protocol: (§1) The SCC-1 (UM-SCC-1) cell line was obtained from the University of Michigan Cancer Research Laboratory, and CAL-27 and SCC-4 cells were obtained from the American Type Culture Collection (Manassas, Va.). SCC-1 and CAL-27 cells were cultured in DMEM media, whereas SCC-4 cells were grown in 1:1 Hams F-12 DMEM media. All media was supplemented with 10% fetal bovine serum (HyClone, Logan, Utah), 1.2% sodium bicarbonate, and 5000 units/ml penicillin, 5 μg/ml streptomycin and 10 μg/ml neomycin. OGF was purchased from Sigma-Aldrich (St. Louis, Mo.), dissolved in sterile water, and used at a final concentration of 10^−6 M.
The p16-targeted siRNAs (antisense:5′ […]-3′; sense (SEQ ID NO:5): 5′ […]-3′(SEQ ID NO:6) were obtained as ready-annealed, purified duplex probes (Invitrogen, Carlsbad, Calif.). For transfection, 2×10^5 cells per well were seeded in 6-well plates containing 1 ml of serum-free media without antibiotics. In each well, 20 nM of p16-siRNA or control siRNA solutions in serum-free media were added. Cells were incubated for 4 h at 37° C. prior to the addition of OGF. Cultures were incubated for additional 20 h, and then 1 ml fresh complete media either lacking or containing OGF was added. At the indicated time points, cells were collected for growth curves or Western blotting. Three or more independent experiments were conducted. The control siRNAs were purchased from Ambion.

p16 = experiment: Western blot of p16 in CAL-27 cells; assay type: cell-based, human; details: synchronized CAL-27 cells, 9 h
Protocol: as §1
Synchronized cells (˜2×10^6) from each treatment were solubilized in 200 μl RIPA buffer (1×PBS, 10 μM IGEPAL, 1 mg/ml SDS, 5 mg/ml deoxycholic acid), containing protease and phosphatase inhibitors (2 μg/ml aprotinin, 3 mg/ml phenylmethyl sulfonyl fluoride (PMSF), 1 mM sodium orthovanidate, 1 μM okadaic acid). Total protein concentrations were measured using the DC protein assay kit (Bio-Rad Laboratories, Hercules, Calif.). Equal amounts of protein (40 μg) were subjected to 10% SDS-PAGE followed by transfer of proteins onto polyvinylidene difluoride (Millipore, Billerica, Mass.) using standard protocols. […]

Cdk2 kinase activity = experiment: Immunoprecipitation and H1 kinase assay (Cdk2 kinase activity) in BxPC-3 cells; assay type: cell-based, human
Protocol: To quantify expression levels or kinase activity, the optical density of each band was determined by densitometry and analyzed by QuickOne (Bio-Rad Laboratories). Each value was normalized to β-actin from the same blot. To report the changes due to OGF treatment, we calculated the fold increase by dividing the normalized value from the OGF treated samples by the normalized value of control samples at each time point; thus, increases due to OGF have values greater than one, and decreases due to OGF have values less than one. For all Western blot analyses, 3 or more independent experiments were performed.
To immunoprecipitate protein complexes, cell extracts were prepared as follows: 2×10^6 cells per sample were rinsed in cold PBS followed by lysis in 200 μl immunoprecipitation buffer (1% NP-40, 10 mM HEPES (pH 7.5), 200 mM NaCl, 5 mM EDTA, 50 mM NaF, 0.2 mM sodium orthovanidate, 1 mM phenylmethyl sulfonyl fluoride, 2 mM dithiothreitol), 1× Halt™ protease inhibitorcocktail (Pierce, Rockford, Ill.)). For each immunoprecipitation reaction mixture, a total of 500 μg of protein extract was used. To each sample, 50 μl of protein A beads (Santa Cruz Biotechnology) were added and incubated at 40° C. for 30 min with rotation. Beads were removed by centrifugation at 14000 rpm for 15 s. The lysates were then subjected to immunoprecipitation using 10 μl of polyclonal antibody against Cdk2 and incubated at 40° C. for 1.5 hours with rotation, followed by addition of 20 μl of protein A beads as the immune complex binding agent.
Samples were further incubated at 40 C for 1 hour with rotation. Beads were pelleted by centrifugation at 14000 rpm for 15 s, washed three times with 500 μl ice-cold immunoprecipitation wash buffer (1% NP-40, 50 mM HEPES, 150 mM NaCl, 1 mM EDTA, 1 mM dithiothreitol), and followed by two washes with ice-cold H1 kinase buffer (50 mM HEPES (pH 7.5), 10 mM MgCl2, 10 mM MnCl2, 1 mM dithiothreitol). Immunoprecipitates were incubated with 10 μCi γ^32P-ATP, and 1 μg of histone H1 (Roche) as the substrate for Cdk2. After incubation for 30 min at 30° C., with occasional mixing, the reaction was stopped by the addition of 2× sample loading buffer (Santa Cruz Biotechnology). Proteins were separated by a 12% SDS-PAGE gel, and the Cdk2 kinase activity pattern was visualized by autoradiography of phosphorylated H1.

Which “fewer cells than control cultures” value ([1]; 72 hr) does the source give for [Met^5]-enkephalin [OGF] here?
Its value is 20%.

What about the “fewer cells than control cultures” value ([1]; 96 hr) of the same substance?
Its value is 32%.

And the doubling time ([1]; growth curve data)?
The doubling time was 57.1 h.

And the “effect on growth of cells lacking p16” value (CAL-27 cells)?
The value was “no inhibitory effects”.

And the “p16 expression relative to controls” value (p16)?
The value was “increased p16 expression”.

And the “Cdk2 kinase activity vs control cells at each respective time point” value (Cdk2 kinase activity; OGF for 15, 18 or 21 hours (FIG. 5))?
Its value is “significantly reduced”.

What about the “decrease in Cdk2 kinase activity compared to control” value (“decrease in Cdk2 kinase activity” for short) (Cdk2 kinase activity; OGF for 15 hours) of the same substance?
Its value is 78%.

And the “decrease in Cdk2 kinase activity” value (Cdk2 kinase activity; OGF for 18 hours)?
Its value is 46%.

What about the “decrease in Cdk2 kinase activity” value (Cdk2 kinase activity; OGF for 21 hours) of the same substance?
The value was 82%.
